# Data reported in patent US20210275516A1, “LACTATE ENHANCING COMPOUNDS AND USES THEREOF” (ECOLE POLYTECHNIQUE FEDERALE DE LAUSANNE (EPFL), priority 2018, published 2021).
# What was measured:
# [1] = test system: primary astrocytes; experiment: MTT mitochondrial activity assay in astrocytes; type: cell-based, mouse; details: 24 h, maximum concentration (200 μM)
# Description: Primary cultures of cerebrocortical astrocytes were obtained from 1 to 2-day-old OF1 mouse pups (Charles River). Briefly, cortices were isolated and minced in small pieces under a dissecting microscope. The cells were incubated for 30 min at 37° C. in a solution containing 20 U/ml papain, 1 mM L-cysteine and 10 kU/ml DNase I. After dissociation, papain activity was stopped by the addition of fetal calf serum (FCS). Single-cell suspension was then obtained by mechanical dissociation, which consisted in cells trituration in a DMEM D7777 medium supplemented with 44 mm NaHCO3, 10 ml/L antibiotic/antimycotic solution and 10% FCS. The cells were seeded at an average density of 6×10^4 cells/cm^2 on poly-D-lysine-coated 96- or 12-well culture plates, depending on their use, and grown in DMEM D7777 medium supplemented with 44 mm NaHCO3, 10 ml/L antibiotic/antimycotic solution and 10% FCS at 37° C. in a humidified atmosphere containing 5% CO2/95% air. Culture medium was renewed twice a week. Cells were stimulated and harvested between DIV14 and DIV17, when confluence and cell growth were optimal.
# To monitor mitochondrial activity in astrocytes, which is linked to the metabolic process of glycolysis and production of lactate, astrocytes in 96-well plates were stimulated for 24 h (37° C. 5% CO2/95% air) with the compounds of the invention ranging from 0.2 to 200 μM. After stimulation, 5 mg/ml thiazol blue tetrazolium bromide (MTT) in D5030 medium complemented with 5 mM D-glucose and 44 mM sodium bicarbonate (pH 7.2) was added to each well, and cells were incubated for 4 h at 37° C. (5% CO2). The medium was then removed and the amount of reduced MTT, i.e formazan, solubilized in DMSO (50 μl/well) was determined using a spectrophotometer (absorbance of 570 nm).
# The mitochondrial activity in primary astrocytes treated with Compounds (2) to (4) at concentrations ranging from 1 nM to 200 μM. After 24 h, mitochondrial activity was monitored in MTT colorimetric assay as described above (FIG. 3).
# [2] = test system: primary cultures of cerebrocortical astrocytes; experiment: Extracellular lactate quantification (lactate release from primary astrocytes); type: cell-based; details: primary mouse astrocytes, 90 min
# Description: (§1) Primary cultures of cerebrocortical astrocytes were obtained from 1 to 2-day-old OF1 mouse pups (Charles River). Briefly, cortices were isolated and minced in small pieces under a dissecting microscope. The cells were incubated for 30 min at 37° C. in a solution containing 20 U/ml papain, 1 mM L-cysteine and 10 kU/ml DNase I. After dissociation, papain activity was stopped by the addition of fetal calf serum (FCS). Single-cell suspension was then obtained by mechanical dissociation, which consisted in cells trituration in a DMEM D7777 medium supplemented with 44 mm NaHCO3, 10 ml/L antibiotic/antimycotic solution and 10% FCS. […]
# Secretion of L-lactate was measured in the extracellular medium of 96-well plated astrocytes after 90 min stimulation (at 37° C., in 5% CO2/95% air conditions) with Vehicle (DMSO), the compounds of the invention (100 nM to 100 μM) or positive control. […] To quantify lactate concentrations in the extracellular medium, 200 μl of a 0.2M Glycine-semicarbazide buffer (pH 10) containing 3 mM NAD and 14 U/ml LDH was added to each well of a 96-well plate containing 30 μl aliquots of extracellular medium. […] Fluorescence intensity (340 nm excitation/450 nm emission), which represents the amount of NADH produced, was measured, and lactate concentration values were determined relative to a standard curve of L-lactate concentrations. […]
# [3] = test system: cerebral extracellular levels of lactate; experiment: In vivo pharmacodynamics - lactate biosensors; design: species or system mouse; details: 3 h recording, freely moving mice, vs vehicle
# Description: (§2) For pharmacodynamics (FIG. 4) and cognition (FIG. 6) experiments, adult male C57Bl/6J wild-type mice weighting 18-28 g (8 weeks of age) were used (Charles River). For ALS mouse models (FIG. 5), G93A SOD1 transgenic male and female mice on B6.SJL1-Gur/J background were used (Jackson Laboratory).
# (§3) Animals were housed in groups of 3-5 in polypropylene cages (30×40×15 cm) with wire mesh top in a temperature (22±2° C.) and humidity (55±15%) controlled environment on a 12 hour light cycle (07.00-19.00 h lights on), except after surgeries when animal were housed individually. […]
# Cerebral extracellular levels of lactate were monitored in vivo using lactate biosensors (Pinnacle Technology), according to the manufacturer's instructions. […] After surgery, mice were monitored closely and received analgesic treatment for at least 4 days. […] Concentrations of cerebral extracellular lactate were calculated from lactate probe electric signals using post-calibration values. […] Area Under the Curve (AUC) of lactate concentration curves were calculated using Graphad Prism and the ratio of AUC after drug over Vehicle administration was calculated.
# [4] = test system: primary astrocytes; experiment: Intracellular glycogen quantification in astrocytes; type: cell-based, mouse; details: 10 μM, 3 h, vs vehicle
# Description: as §1
# Astrocytes grown on 12-well plates were used for intracellular glycogen quantifications. […]
# First, the amount of proteins in each sample was quantified to assess whether harvested astrocytes from primary cell cultures yielded enough and equivalent amounts of proteins on each replicates. Proteins were quantified using the micro BCA Protein Assay kit (Thermo Scientific), according to manufacturer's instructions. Next, intracellular glycogen concentrations were quantified using a 250 μl-aliquot of the same stimulated, thawed, and sonicated cell lysate. […] Fluorescence intensity (340 nm excitation/440 nm emission) was measured using a Safire 2 spectrophotometer. […]
# [5] = test system: G93A SOD1 mouse model of ALS; experiment: SOD1 G93A mouse ALS model - survival; type: in vivo; details: 10 mg/kg orally every day from post-natal day 30 to final stage, G93A SOD1 mice, vs vehicle
# Description: as §2, §3
# (§4) Transgenic mice on B6.SJL1-Gur/J background overexpressing the human mutated gene G93A SOD1 were used. […] F1 pups were genotyped after ear punching at weaning, using quantitative PCR (qPCR), which allowed determining the number of SOD1 copies in each mouse.
# (§5) To test for the potential therapeutic effect of the administered compound, SOD1 mice were given orally the compound of the invention (10 mg/kg) or vehicle every day from post-natal day 30 (weaning) throughout their entire life. […] Each mouse's weight was recorded every day throughout the entire treatment, while neuromuscular function was measured once a week. […]
# [6] = test system: G93A SOD1 mouse model of ALS; experiment: SOD1 G93A mouse ALS model - grip test; type: in vivo; details: vs vehicle
# Description: as §2, §3, §4, §5
# [7] = test system: C57Bl/6 wild-type mice; experiment: Long-term memory test - inhibitory avoidance (IA); type: in vivo, mouse; details: 100 mg/kg oral single dose 20 min before training
# Description: as §2
# Animals were housed in groups of 3-5 in polypropylene cages (30×40×15 cm) with wire mesh top in a temperature (22±2° C.) and humidity (55±15%) controlled environment on a 12 hour light cycle (07.00-19.00 h lights on), except after surgeries when animal were housed individually. The samples (Vehicle or compounds of the invention) were administered per os (gavage) in a solution made of water supplemented with 0.4% hydroxypropyl methylcellulose (HPMC) Methocel 4KM (w/v) and 0.25% Tween-20 (v/v), as previously described (Thackaberry et al., 2010, Toxicol Sci., 117(2):485-92). Concentrations of the compounds tested ranged from 10 to 100 mg/kg.
# IA test is a well-established memory paradigm in rodents that measures contextual memory associated with a mild electrical footshock in a specific context (the dark compartment of the IA chamber). Groups of 8-week old C57Bl/6 wild-type […] mice were tested. Each mouse was handled for 5 minutes per day for at least 4 consecutive days to reduce animal's stress due to experimenter's presence/manipulation during test days. Inhibitory avoidance was carried out in an IA chamber (MedAssociates) that consists in a rectangular Perspex box divided into a safe and a shock compartment separated by an automatically operated sliding door. The safe compartment is white and illuminated while the shock compartment is black and dark. Mice were trained for IA 20 min after oral administration of the drug or vehicle. During training, mice were placed into the safe compartment with their heads facing away from the door. […] Memory retention was measured at 24 h or 3 weeks after training by placing the mouse back into the lit compartment and recording its latency (in seconds) to enter the dark compartment. […]
structure (smiles),measurement,setting,value
"FC(F)(F)Oc1ccc(Nc2nccc3ccccc23)cc1 [Compound 3, N-(4-(trifluoromethoxy)phenyl)isoquinolin-1-amine]",Remaining mitochondrial activity at maximum concentration compared to vehicle,[1],35.9%
"COc1cc2ccnc(Cc3ccc(OC(F)(F)F)cc3)c2cc1OC [Compound 4, 6,7-dimethoxy-1-(4-(trifluoromethoxy)benzyl)isoquinoline]",Remaining mitochondrial activity at maximum concentration compared to vehicle,[1],77.3%
"COc1cc2ccnc(Nc3ccc(OC(F)(F)F)cc3)c2cc1OC [Compound 1, 6,7-dimethoxy-N-(4-(trifluoromethoxy)phenyl)isoquinolin-1-amine]",Concentration at which the effect on lactate release is already significant,[2],below 1 μM
same,Remaining mitochondrial activity at maximum concentration compared to vehicle,[1],8.05%
same,Extracellular lactate levels in the brain,[3]; 10 mg/kg per os,significantly increases extracellular lactate levels
same,Extracellular lactate levels in the brain,[3]; 100 mg/kg per os,significantly increases extracellular lactate levels
same,Degradation of intracellular glycogen,[4],significantly enhances the degradation of intracellular glycogen
same,Life span (Kaplan-Meier survival),[5],significantly increased life span
same,Onset of symptoms (grip test),"[6]; 10 mg/kg orally every day from post-natal day 30, G93A SOD1 mice",delayed the onset of the symptoms
same,Muscle function (grip test),"[6]; 10 mg/kg orally every day from post-natal day 30, measured weekly until 16 weeks of age",remained significantly improved
same,Latency to enter the dark compartment at training,[7],same latencies at training
same,"Latency to enter the dark compartment, 3 weeks after training",[7]; vs vehicle,significantly higher
same,"Latency to enter the dark compartment, 24 h after training",[7]; vs vehicle,significantly higher
"COc1cc2ccnc(Nc3ccc(C(F)(F)F)cc3)c2cc1OC [Compound 2, 6,7-dimethoxy-N-(4-(trifluoromethyl)phenyl)isoquinolin-1-amine]",Remaining mitochondrial activity at maximum concentration compared to vehicle,[1],7.86%
